Test results from patent publication US20070021434A1, “NON-NUCLEOSIDE ANTI-HEPACIVIRUS AGENTS AND USES THEREOF” (Migenix Inc., priority 2005, published 2007).

Biological target: HCV RdRp (NS5B) (UniProt P26663)
Format: biochemical, hepatitis C virus

Sequence of HCV RdRp (NS5B) (P26663 whole entry, looked up): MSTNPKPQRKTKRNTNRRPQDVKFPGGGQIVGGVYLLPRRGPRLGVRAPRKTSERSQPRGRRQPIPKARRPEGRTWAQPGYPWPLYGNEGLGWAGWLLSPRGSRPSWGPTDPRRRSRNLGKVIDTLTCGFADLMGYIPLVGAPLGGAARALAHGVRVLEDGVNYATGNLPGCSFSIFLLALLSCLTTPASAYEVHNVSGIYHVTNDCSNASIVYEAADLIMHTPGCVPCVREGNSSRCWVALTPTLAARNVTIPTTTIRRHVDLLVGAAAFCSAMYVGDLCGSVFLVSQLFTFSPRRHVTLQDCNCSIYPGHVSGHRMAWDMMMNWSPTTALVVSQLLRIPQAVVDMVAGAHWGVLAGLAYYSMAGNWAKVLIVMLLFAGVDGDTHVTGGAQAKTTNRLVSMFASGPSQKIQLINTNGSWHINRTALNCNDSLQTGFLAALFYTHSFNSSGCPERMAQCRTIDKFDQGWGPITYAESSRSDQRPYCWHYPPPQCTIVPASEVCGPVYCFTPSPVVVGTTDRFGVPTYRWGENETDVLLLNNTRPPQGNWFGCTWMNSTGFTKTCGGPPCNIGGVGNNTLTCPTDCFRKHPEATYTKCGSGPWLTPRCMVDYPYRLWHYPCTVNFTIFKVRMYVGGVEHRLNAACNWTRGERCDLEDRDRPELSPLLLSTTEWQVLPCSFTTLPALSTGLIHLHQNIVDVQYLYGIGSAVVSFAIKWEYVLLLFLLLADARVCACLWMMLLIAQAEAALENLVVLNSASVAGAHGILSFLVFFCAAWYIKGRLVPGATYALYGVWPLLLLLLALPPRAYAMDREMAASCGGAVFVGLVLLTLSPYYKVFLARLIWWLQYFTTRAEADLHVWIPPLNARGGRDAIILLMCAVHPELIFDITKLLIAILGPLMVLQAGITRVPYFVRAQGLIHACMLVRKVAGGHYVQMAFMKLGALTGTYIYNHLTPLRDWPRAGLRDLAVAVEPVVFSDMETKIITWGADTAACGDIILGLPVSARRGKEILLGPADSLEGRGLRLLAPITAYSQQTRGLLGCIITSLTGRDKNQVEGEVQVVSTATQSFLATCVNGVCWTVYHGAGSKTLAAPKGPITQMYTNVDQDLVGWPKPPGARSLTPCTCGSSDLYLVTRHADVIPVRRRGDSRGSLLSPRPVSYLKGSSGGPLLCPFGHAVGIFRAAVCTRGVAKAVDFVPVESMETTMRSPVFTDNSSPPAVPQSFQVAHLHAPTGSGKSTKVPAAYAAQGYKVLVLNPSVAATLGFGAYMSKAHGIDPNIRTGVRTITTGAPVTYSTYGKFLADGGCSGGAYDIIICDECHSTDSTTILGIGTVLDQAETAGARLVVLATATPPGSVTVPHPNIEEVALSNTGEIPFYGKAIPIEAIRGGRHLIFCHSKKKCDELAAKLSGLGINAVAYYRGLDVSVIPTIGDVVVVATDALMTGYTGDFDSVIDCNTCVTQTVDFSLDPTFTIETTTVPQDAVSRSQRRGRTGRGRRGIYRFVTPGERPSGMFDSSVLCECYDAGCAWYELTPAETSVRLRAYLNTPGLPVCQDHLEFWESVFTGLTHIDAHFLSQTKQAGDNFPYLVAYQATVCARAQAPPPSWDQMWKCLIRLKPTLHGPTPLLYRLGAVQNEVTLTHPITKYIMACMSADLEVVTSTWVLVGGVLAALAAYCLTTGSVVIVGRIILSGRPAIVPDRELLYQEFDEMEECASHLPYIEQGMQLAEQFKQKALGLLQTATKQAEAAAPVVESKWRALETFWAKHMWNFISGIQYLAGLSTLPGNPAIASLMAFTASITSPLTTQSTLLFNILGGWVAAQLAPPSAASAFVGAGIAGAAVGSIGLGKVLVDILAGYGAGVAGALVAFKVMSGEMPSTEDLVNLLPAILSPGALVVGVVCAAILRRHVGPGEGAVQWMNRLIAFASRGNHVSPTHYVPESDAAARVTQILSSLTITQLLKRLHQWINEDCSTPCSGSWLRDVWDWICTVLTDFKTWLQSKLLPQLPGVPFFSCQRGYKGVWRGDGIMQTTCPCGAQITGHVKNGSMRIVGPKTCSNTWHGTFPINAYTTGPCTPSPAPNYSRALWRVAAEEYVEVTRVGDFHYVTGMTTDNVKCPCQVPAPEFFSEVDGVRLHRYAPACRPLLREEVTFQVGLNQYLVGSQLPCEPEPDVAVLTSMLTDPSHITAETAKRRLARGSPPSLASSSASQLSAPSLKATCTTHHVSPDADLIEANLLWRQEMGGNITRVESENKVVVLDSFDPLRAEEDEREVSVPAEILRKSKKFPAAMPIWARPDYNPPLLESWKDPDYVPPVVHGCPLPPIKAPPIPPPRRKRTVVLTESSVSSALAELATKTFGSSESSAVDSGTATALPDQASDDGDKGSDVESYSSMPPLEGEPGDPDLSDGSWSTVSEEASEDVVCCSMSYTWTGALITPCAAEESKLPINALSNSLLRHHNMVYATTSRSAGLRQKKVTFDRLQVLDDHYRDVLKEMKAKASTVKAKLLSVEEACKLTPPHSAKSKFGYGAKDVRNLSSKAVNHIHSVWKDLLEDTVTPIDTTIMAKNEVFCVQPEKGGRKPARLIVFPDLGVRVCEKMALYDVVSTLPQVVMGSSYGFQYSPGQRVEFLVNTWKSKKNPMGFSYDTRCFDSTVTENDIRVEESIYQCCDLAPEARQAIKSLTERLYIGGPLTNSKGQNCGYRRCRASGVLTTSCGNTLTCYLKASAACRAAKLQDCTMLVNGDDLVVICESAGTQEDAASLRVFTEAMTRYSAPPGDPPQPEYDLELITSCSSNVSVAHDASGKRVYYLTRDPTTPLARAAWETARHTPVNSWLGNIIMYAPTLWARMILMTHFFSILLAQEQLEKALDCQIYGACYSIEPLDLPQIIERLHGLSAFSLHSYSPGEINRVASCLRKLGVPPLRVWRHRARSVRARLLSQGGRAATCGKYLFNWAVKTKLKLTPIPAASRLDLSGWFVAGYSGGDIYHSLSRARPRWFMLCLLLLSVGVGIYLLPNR

With Cc1ccc(NC(=O)[C@H](CCCCN)NC(=O)Nc2ccc(OCc3ccc([N+](=O)[O-])cc3)cc2)cc1 [Compound 196, (S)-6-AMINO-2-{3-[4-(4-NITRO-BENZYLOXY)-PHENYL]-UREIDO}-HEXANOIC ACID P-TOLYLAMIDE] as the compound, how does the IC50 read?
The IC50 was 10 to 50 µM.

Which IC50 does the source give for Cc1ccc(NC(=O)C(CCCCN)NC(=O)CNCc2cccc(C(F)(F)F)c2)cc1 [Compound 351, (S)-6-AMINO-2-[2-(3-TRIFLUOROMETHYL-BENZYLAMINO)-ACETYLAMINO]-HEXANOIC ACID P-TOLYLAMIDE] here?
Its IC50 is > 50 µM.

For Cc1ccc(NC(=O)C(CCC(N)=O)NC(=O)OCC2c3ccccc3-c3ccccc32)cc1 [Compound 382, (R)-(3-CARBAMOYL-1-P-TOLYLCARBAMOYL-PROPYL)-CARBAMIC ACID 9H-FLUOREN-9-YLMETHYL ESTER], which IC50 is on record?
The IC50 was > 50 µM.

With Cc1cc2cc(NC(=O)[C@H](CCCCNC(=O)CN)NC(=O)Nc3ccc4c(c3)Cc3ccccc3-4)ccc2[nH]1 [Compound 298, (S)-6-(2-AMINO-ACETYLAMINO)-2-[3-(9H-FLUOREN-2-YL)-UREIDO]-HEXANOIC ACID (2-METHYL-1H-INDOL-5-YL)-AMIDE] as the compound, how does the IC50 read?
Its IC50 is > 50 µM.

For NCCCCC(NC(=O)Cc1cccc2ccccc12)C(=O)Nc1ccc(CN(C(=O)c2ccco2)C2CCCCC2)cc1 (stereo in doubt) [Compound 25, (S)-FURAN-2-CARBOXYLIC ACID {4-[6-AMINO-2-(2-NAPHTHALEN-1-YL-ACETYLAMINO)-HEXANOYLAMINO]-BENZYL}-CYCLOHEXYL-AMIDE], which IC50 is on record?
Its IC50 is 10 to 50 µM.

How did the IC50 turn out when COC(=O)c1cccc(COc2ccc(NC(=O)NC(CCCCN)C(=O)Nc3ccc(C)cc3)cc2)c1 [Compound 276, (S)-3-{4-[3-(5-AMINO-1-P-TOLYLCARBAMOYL-PENTYL)-UREIDO]-PHENOXYMETHYL}-BENZOIC ACID METHYL ESTER] was run?
The IC50 was 10 to 50 µM.

Which IC50 does the source give for NCCCC[C@H](NC(=O)OCC1c2ccccc2-c2ccccc21)C(=O)Nc1ccc(-c2ccccc2)cc1 [Compound 143, (S)-[5-AMINO-1-(BIPHENYL-4-YLCARBAMOYL)-PENTYL]-CARBAMIC ACID 9H-FLUOREN-9-YLMETHYL ESTER] here?
The IC50 was < 10 µM.

For Cc1ccc(NC(=O)C(CCCCN)NC(=O)c2cccc3ccccc23)cc1 (stereo not drawn) [Compound 79, NAPHTHALENE-1-CARBOXYLIC ACID (5-AMINO-1-P-TOLYLCARBAMOYL-PENTYL)-AMIDE], which IC50 is on record?
The IC50 was > 50 µM.

How did the IC50 turn out when Cc1ccc(NC(=O)C(CCCCN)NS(=O)(=O)c2ccc(C(F)(F)F)cc2)cc1 [Compound 397, (S)-6-AMINO-2-(4-TRIFLUOROMETHYL-BENZENESULFONYLAMINO)-HEXANOIC ACID P-TOLYLAMIDE] was run?
Its IC50 is > 50 µM.

Which IC50 does the source give for Cc1ccc(NC(=O)[C@H](CCCCN)NC(=O)COc2ccc(F)cc2)cc1 [Compound 329, (S)-6-AMINO-2-[^2-(^4-FLUORO-PHENOXY)-ACETYLAMINO]-HEXANOIC ACID P-TOLYLAMIDE] here?
The IC50 was > 50 µM.

COC(=O)[C@H](Cc1c[nH]c2ccccc12)NC(=O)C(CCCCN)NC(=O)OCC1c2ccccc2-c2ccccc21 (stereo partly drawn) [Compound 58, (S)-2-[6-AMINO-2-((9H-FLUOREN-9-YLMETHOXYCARBONYL)AMINO)-HEXANOYL-(R)-AMINO]-3-(1H-INDOL-3-YL)-PROPIONIC ACID METHYL ESTER] was tested. Which IC50 did it give?
The IC50 was > 50 µM.

Which IC50 does the source give for Cc1ccc(NC(=O)C(CNC(=O)CCN)NC(=O)OCC2c3ccccc3-c3ccccc32)cc1 [Compound 178, (S)-[2-(3-AMINO-PROPIONYLAMINO)-1-P-TOLYLCARBAMOYL-ETHYL]-CARBAMIC ACID 9H-FLUOREN-9-YLMETHYL ESTER] here?
Its IC50 is 10 to 50 µM.

Which IC50 does the source give for NCCCC[C@H](NC(=O)Nc1ccc(OCc2ccccc2)cc1)C(=O)NC1CC1 [Compound 266, (S)-6-AMINO-2-[3-(4-BENZYLOXY-PHENYL)-UREIDO]-HEXANOIC ACID CYCLOPROPYLAMIDE] here?
The IC50 was > 50 µM.

How did the IC50 turn out when Cc1ccc(NC(=O)[C@@H](CCCCN)NC(=O)NCc2ccc(Cl)cc2)cc1 [Compound 169, (R)-6-AMINO-2-[3-(4-CHLORO-BENZYL)-UREIDO]-HEXANOIC ACID P-TOLYLAMIDE] was run?
The IC50 was > 50 µM.

With O=C(CNC(=O)OCC1c2ccccc2-c2ccccc21)Nc1ccc(CN(C(=O)c2ccco2)C2CCCCC2)cc1 [Compound 18, [(4-{[CYCLOHEXYL-(FURAN-2-CARBONYL)-AMINO]-METHYL}-PHENYLCARBAMOYL)-METHYL]-CARBAMIC ACID 9H-FLUOREN-9-YLMETHYL ESTER] as the compound, how does the IC50 read?
The IC50 was > 50 µM.

How did the IC50 turn out when NCCCC[C@H](N)C(=O)Nc1ccc(CN(C(=O)c2ccco2)C2CCCCC2)cc1 [Compound 7, (S)-FURAN-2-CARBOXYLIC ACID CYCLOHEXYL-[4-(2,6-DIAMINO-HEXANOYLAMINO)-BENZYL]-AMIDE] was run?
The IC50 was > 50 µM.

Which IC50 does the source give for Cc1ccc(NC(=O)C(NC(=O)OCC2c3ccccc3-c3ccccc32)C(C)O)cc1 [Compound 377, (2+/−,3R)-(2-HYDROXY-1-P-TOLYLCARBAMOYL-PROPYL)-CARBAMIC ACID 9H-FLUOREN-9-YLMETHYL ESTER] here?
The IC50 was > 50 µM.

For Cc1ccc(NC(=O)C(CCCCNC(=O)CN)NC(=O)OCC2c3ccccc3-c3ccccc32)cc1 [Compound 176, (S)-[5-(2-AMINO-ACETYLAMINO)-1-P-TOLYLCARBAMOYL-PENTYL]-CARBAMIC ACID 9H-FLUOREN-9-YLMETHYL ESTER], which IC50 is on record?
Its IC50 is < 10 µM.

How did the IC50 turn out when Cc1ccc(NC(=O)C(CNC(=O)CN)NC(=O)OCC2c3ccccc3-c3ccccc32)cc1 [Compound 115, (S)-[2-(2-AMINO-ACETYLAMINO)-1-P-TOLYLCARBAMOYL-ETHYL]-CARBAMIC ACID 9H-FLUOREN-9-YLMETHYL ESTER] was run?
Its IC50 is 10 to 50 µM.

With NCCCCN(CC(=O)Nc1ccc(C2CCCCC2)cc1)C(=O)Nc1ccc(OCc2ccccc2)cc1 [Compound 323, 2-[1-(4-AMINO-BUTYL)-3-(4-BENZYLOXY-PHENYL)-UREIDO]-N-(4-CYCLOHEXYL-PHENYL)-ACETAMIDE] as the compound, how does the IC50 read?
Its IC50 is > 50 µM.

Which IC50 does the source give for Cc1cc2cc(NC(=O)[C@H](CCCNC(=O)CN)NC(=O)OCC3c4ccccc4-c4ccccc43)ccc2[nH]1 [Compound 238, (S)-[4-(2-AMINO-ACETYLAMINO)-1-(2-METHYL-1H-INDOL-5-YLCARBAMOYL)-BUTYL]-CARBAMIC ACID 9H-FLUOREN-9-YLMETHYL ESTER] here?
The IC50 was < 10 µM.

With Cc1ccc(N(C)C(=O)C(CCCCN)NC(=O)OCC2c3ccccc3-c3ccccc32)cc1 [Compound 92, (S)-[5-AMINO-1-(METHYL-P-TOLYL-CARBAMOYL)-PENTYL]-CARBAMIC ACID 9H-FLUOREN-9-YLMETHYL ESTER] as the compound, how does the IC50 read?
The IC50 was > 50 µM.

Which IC50 does the source give for CC(C)(C)c1ccc(NC(=O)[C@H](Cc2ccc(CN)cc2)NC(=O)Nc2ccc(-c3ccccc3)cc2)cc1 [Compound 150, (S)-3-(4-AMINOMETHYL-PHENYL)-2-(3-BIPHENYL-4-YL-UREIDO)-N-(4-TERT-BUTYL-PHENYL)-PROPIONAMIDE] here?
Its IC50 is < 10 µM.

With CC(C)NC(=O)[C@H](CCCCN)NC(=O)Nc1ccc(OCc2ccccc2)cc1 [Compound 291, (S)-6-AMINO-2-[3-(4-BENZYLOXY-PHENYL)-UREIDO]-HEXANOIC ACID ISOPROPYLAMIDE] as the compound, how does the IC50 read?
Its IC50 is > 50 µM.

Which IC50 does the source give for Cc1ccc(NC(=O)C(CCCCN)NC(=O)NCc2ccccc2)cc1 [Compound 133, (S)-6-AMINO-2-(3-BENZYL-UREIDO)-HEXANOIC ACID P-TOLYLAMIDE] here?
Its IC50 is > 50 µM.

CCCCNC(=O)[C@H](CCCCN)NC(=O)Nc1ccc(OCc2ccccc2)cc1 [Compound 258, (S)-6-AMINO-2-[3-(4-BENZYLOXY-PHENYL)-UREIDO]-HEXANOIC ACID BUTYLAMIDE] was tested. Which IC50 did it give?
Its IC50 is > 50 µM.

For Cc1ccc(NC(=O)C(CCCCN)NC(=O)C(N)Cc2cccc3ccccc23)cc1 [Compound 77, (S)-6-AMINO-2-(2-(S)-AMINO-3-NAPHTHALEN-1-YL-PROPIONYLAMINO)-HEXANOIC ACID P-TOLYLAMIDE], which IC50 is on record?
Its IC50 is > 50 µM.
